Reference: patent US20260262643A1, “HERBICIDAL BENZOXAZINES” (FMC CORPORATION, priority 2022, published 2026)
Like-named read-outs stand apart in the source and are kept apart here.

Experiments:
blackgrass = assay: Test A preemergence; assay type: in vivo, Alopecurus myosuroides; conditions: for pest or weed control at 125 g/ha / pest or weed control at 500 g/ha: Alopecurus myosuroides, pre-emergence, 240 h, read-out: Plant response rating, Blackgrass
In short: (§1)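 Plants were grown in loam and sand and treated preemergence or postemergence (one- to two-leaf stage, 2–10 cm) with compound in solvent plus surfactant. Response was scored against untreated controls after 10 greenhouse days, where 0 means no effect and 100 complete control.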

ragweed = assay: Test A preemergence; assay type: in vivo, Ambrosia artemisiifolia; conditions: for pest or weed control at 125 g/ha / pest or weed control at 500 g/ha: Ambrosia artemisiifolia, pre-emergence, 240 h, read-out: Plant response rating, Ragweed
In short: as §1

soybean = assay: Test A preemergence; assay type: in vivo, Glycine max; conditions: for plant injury at 125 g/ha / plant injury at 500 g/ha: Glycine max, pre-emergence, 240 h, read-out: Plant response rating, Soybean
In short: as §1

barnyardgrass [1] = assay: Test A postemergence; assay type: in vivo, Echinochloa crusgalli; conditions: postemergence, 10 days; for Barnyardgrass plant response rating: 125 g ai/ha, 0 to 100 scale, 0 no effect, 100 complete control; for Plant response rating, Barnyardgrass: 500 g ai/ha, visual injury, 0 to 100 scale (0 no effect, 100 complete control)
In short: as §1

corn = assay: Test A postemergence; assay type: in vivo, Zea mays; conditions: postemergence, 10 days; for plant injury at 125 g/ha / Corn plant response rating (crop injury, 0 = no effect, 100 = complete kill) at 500 g/ha: Zea mays, post-emergence, 240 h; for plant injury at 125 g/ha: read-out: Corn plant response rating
In short: as §1

foxtail, giant = assay: Test A postemergence; assay type: in vivo, Setaria faberi; conditions: postemergence, 10 days; for pest or weed control at 125 g/ha / pest or weed control at 500 g/ha: Setaria faberi, post-emergence, 240 h; for pest or weed control at 125 g/ha: read-out: Foxtail, Giant plant response rating; for pest or weed control at 500 g/ha: read-out: Plant response rating, Foxtail, Giant
In short: as §1

kochia = assay: Test A postemergence; assay type: in vivo, Bassia scoparia; conditions: postemergence, 10 days; for pest or weed control at 125 g/ha / pest or weed control at 500 g/ha: Bassia scoparia, post-emergence, 240 h; for pest or weed control at 125 g/ha: read-out: Kochia plant response rating; for pest or weed control at 500 g/ha: read-out: Plant response rating, Kochia
In short: as §1

pigweed, palmer = assay: Test A postemergence; assay type: in vivo, Amaranthus palmeri; conditions: postemergence, 10 days; for pest or weed control at 125 g/ha / pest or weed control at 500 g/ha: Amaranthus palmeri, post-emergence, 240 h; for pest or weed control at 125 g/ha: read-out: Pigweed, Palmer plant response rating; for pest or weed control at 500 g/ha: read-out: Plant response rating, Pigweed, Palmer
In short: as §1

ryegrass, Italian = assay: Test A postemergence; assay type: in vivo, Lolium multiflorum; conditions: postemergence, 10 days; for pest or weed control at 125 g/ha / pest or weed control at 500 g/ha: Lolium multiflorum, post-emergence, 240 h; for pest or weed control at 125 g/ha: read-out: Ryegrass, Italian plant response rating; for pest or weed control at 500 g/ha: read-out: Plant response rating, Ryegrass, Italian
In short: as §1

galium = assay: Test A postemergence; assay type: in vivo, Galium aparine; conditions: postemergence, 10 days; for pest or weed control at 125 g/ha / pest or weed control at 500 g/ha: Galium, post-emergence, 240 h; for pest or weed control at 125 g/ha: read-out: Galium plant response rating; for pest or weed control at 500 g/ha: read-out: Plant response rating, Galium
In short: as §1

barnyardgrass [2] = assay: Test B flooded paddy test; assay type: in vivo, Echinochloa crus-galli; conditions: 250 g ai/ha, Flood, 13 days, 0 to 100 scale (0 no effect, 100 complete control); for pest or weed control at 250 g/ha: Echinochloa crus-galli, 312 h, read-out: Plant response rating, Barnyardgrass
In short: (§2)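 Two-leaf plants, 3 cm flood, in-water application, 13-day greenhouse hold, visual 0–100 rating vs untreated checks.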

rice = assay: Test B flooded paddy test; assay type: in vivo, Oryza sativa; conditions: 250 g ai/ha, Flood, 13 days, 0 to 100 scale (0 no effect, 100 complete control); for plant injury at 250 g/ha: Oryza sativa, 312 h, read-out: Plant response rating, Rice
In short: as §2

sedge, umbrella = assay: Test B flooded paddy test; assay type: in vivo, Cyperus difformis; conditions: 250 g ai/ha, Flood, 13 days, 0 to 100 scale (0 no effect, 100 complete control); for pest or weed control at 250 g/ha: Cyperus difformis, 312 h, read-out: Plant response rating, Sedge, Umbrella
In short: as §2

[3] = 125 g ai/ha, visual injury after 10 days, 0 to 100 scale, 0 is no effect, 100 is complete control
[4] = 500 g ai/ha, 0 to 100 scale (0 no effect, 100 complete control), 10 days
[5] = 125 g ai/ha, 0 to 100 scale (0 no effect, 100 complete control)
[6] = 500 g ai/ha, visual injury, 0 to 100 scale (0 no effect, 100 complete control)
[7] = 500 g ai/ha, visual injury after 10 days, 0 to 100 scale, 0 is no effect, 100 is complete control
[8] = 125 g ai/ha, 0 to 100 scale, 0 no effect, 100 complete control

SMILES	Barnyardgrass plant response rating (barnyardgrass [1])	Plant response rating, Barnyardgrass (barnyardgrass [1])	plant injury at 125 g/ha (corn; [5]) [%]	Corn plant response rating (crop injury, 0 = no effect, 100 = complete kill) at 500 g/ha (corn; [6]) [%]	pest or weed control at 125 g/ha (foxtail, giant; [5]) [%]	pest or weed control at 500 g/ha (foxtail, giant; [6]) [%]	pest or weed control at 125 g/ha (kochia; [5]) [%]	pest or weed control at 500 g/ha (kochia; [6]) [%]	pest or weed control at 125 g/ha (pigweed, palmer; [5]) [%]	pest or weed control at 500 g/ha (pigweed, palmer; [6]) [%]	pest or weed control at 125 g/ha (ryegrass, Italian; [5]) [%]	pest or weed control at 500 g/ha (ryegrass, Italian; [6]) [%]	pest or weed control at 125 g/ha (galium; [5]) [%]	pest or weed control at 500 g/ha (galium; [6]) [%]	pest or weed control at 250 g/ha (barnyardgrass [2]) [%]	plant injury at 250 g/ha (rice) [%]	pest or weed control at 250 g/ha (sedge, umbrella) [%]	pest or weed control at 500 g/ha (blackgrass; [7]) [%]	pest or weed control at 125 g/ha (ragweed; 125 g ai/ha, 0 to 100 scale) [%]	pest or weed control at 500 g/ha (ragweed; [7]) [%]	other results
Cc1cccc2c1O[C@@H](C)CN2C(=O)c1cccc(-n2cnc(C3COC3)n2)c1 [Compound 109, [(2S)-2,3-Dihydro-2,8-dimethyl-4H-1,4-benzoxazin-4-yl][3-[3-(3-oxetanyl)-1H-1,2,4-triazol-1-yl]phenyl]methanone]	50	90	60	90	70	90	70	90	60	60	50	100	70	100	40	0	98				pest or weed control at 125 g/ha (blackgrass; [3]): 80%; pest or weed control at 500 g/ha (blackgrass; [4]): 90%; pest or weed control at 125 g/ha (ragweed; [3]): 40%; pest or weed control at 500 g/ha (ragweed; [4]): 80%; plant injury at 125 g/ha (soybean; [3]): 30%; plant injury at 500 g/ha (soybean; [4]): 80%
C[C@H]1CN(C(=S)c2cccc(-n3cncn3)c2)c2cccc(Cl)c2O1 [Compound 139, [(2S)-8-Chloro-2,3-dihydro-2-methyl-4H-1,4-benzoxazin-4-yl][3-(1H-1,2,4-triazol-1-yl)phenyl]methanethione]	20	70	40	60	80	100	50	80	40	80	60	100	80	90	15	0	75	90	0	0	pest or weed control at 125 g/ha (blackgrass; 125 g ai/ha, 0 to 100 scale): 70%; plant injury at 125 g/ha (soybean; 125 g ai/ha, 0 to 100 scale): 0%; plant injury at 500 g/ha (soybean; [7]): 40%
CC(C)c1ncn(-c2cc(C(=O)N3C[C@H](C)Oc4c(Cl)cccc43)c3ccccc3c2)n1 [Compound 145]	20	20		20		50		80		90		40		70		0	0	80		0	Plant response rating, Blackgrass (blackgrass; 125 g ai/ha, 0 to 100 scale): 40; Plant response rating, Ragweed (ragweed; 125 g ai/ha, 0 to 100 scale): 0; Plant response rating, Soybean (soybean; 125 g ai/ha, 0 to 100 scale): 0; Plant response rating, Soybean (soybean; [7]): 0; Corn plant response rating (corn; [8]): 10; Foxtail, Giant plant response rating (foxtail, giant; [8]): 20; Kochia plant response rating (kochia; [8]): 70; Pigweed, Palmer plant response rating (pigweed, palmer; [8]): 70; Ryegrass, Italian plant response rating (ryegrass, Italian; [8]): 30; Galium plant response rating (galium; [8]): 60; Plant response rating, Barnyardgrass (barnyardgrass [2]): 45
CC(C)c1ncn(-c2cc(C(=O)N3C[C@H](C)Oc4c(Cl)cccc43)c3ccccc3c2)n1 [Compound 146]	20	20	10		30		80		70		20		50						0		Plant response rating, Blackgrass (blackgrass; 125 g ai/ha, 0 to 100 scale): 70; Plant response rating, Blackgrass (blackgrass; [7]): 90; Plant response rating, Ragweed (ragweed; [7]): 0; Plant response rating, Soybean (soybean; [7]): 20; plant injury at 125 g/ha (soybean; 125 g ai/ha, 0 to 100 scale): 0%; Plant response rating, Corn (corn; [6]): 30; Plant response rating, Foxtail, Giant (foxtail, giant; [6]): 50; Plant response rating, Kochia (kochia; [6]): 90; Plant response rating, Pigweed, Palmer (pigweed, palmer; [6]): 70; Plant response rating, Ryegrass, Italian (ryegrass, Italian; [6]): 40; Plant response rating, Galium (galium; [6]): 80; Plant response rating, Barnyardgrass (barnyardgrass [2]): 0; Plant response rating, Rice (rice): 0; Plant response rating, Sedge, Umbrella (sedge, umbrella): 0
